Assay results from US7223772B1, “Pyrazolopyridine derivatives as selective cox-2 inhibitors” (SmithKline Beecham Corporation, priority 1998, dated 2007).

Assays:
human COX-1 = molecular target: T1, human COX-1 (Homo sapiens, UniProt P23219); assay: Inhibition of PGE2 release in COS cells stably transfected with human COX-1; assay type: cell-based; details: COS cells transfected with human COX-1, 30 μM arachidonic acid
T1 construct: expressed in transfected cells; host or cells: COS cells (stably transfected)
T1 sequence (P23219 24-599): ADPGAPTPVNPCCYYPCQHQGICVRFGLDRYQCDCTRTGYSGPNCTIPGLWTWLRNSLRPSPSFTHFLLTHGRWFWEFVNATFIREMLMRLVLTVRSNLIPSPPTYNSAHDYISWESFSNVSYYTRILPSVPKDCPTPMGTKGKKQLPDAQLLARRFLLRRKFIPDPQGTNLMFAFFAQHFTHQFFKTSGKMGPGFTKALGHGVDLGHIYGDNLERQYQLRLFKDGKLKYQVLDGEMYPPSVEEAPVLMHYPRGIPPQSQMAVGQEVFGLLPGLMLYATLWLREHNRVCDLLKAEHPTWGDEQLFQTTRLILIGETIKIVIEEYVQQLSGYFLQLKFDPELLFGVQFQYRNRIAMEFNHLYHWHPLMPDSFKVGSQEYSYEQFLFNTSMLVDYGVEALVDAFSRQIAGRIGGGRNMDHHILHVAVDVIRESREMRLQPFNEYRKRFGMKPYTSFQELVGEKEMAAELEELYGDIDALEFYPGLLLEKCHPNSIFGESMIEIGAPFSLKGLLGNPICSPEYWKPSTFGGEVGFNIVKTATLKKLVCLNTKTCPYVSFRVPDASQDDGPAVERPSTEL
Procedure: (§1) Inhibitory activity against human COX-1 and COX-2 was assessed in COS cells which had been stably transfected with cDNA for human COX-1 and human COX-2. 24 Hours prior to experiment, COS cells were transferred from the 175 cm^2 flasks in which they were grown, onto 24-well cell culture plates using the following procedure. The incubation medium (Dulbecco's modified eagles medium (DMEM) supplemented with heat-inactivated foetal calf serum (10%v/v), penicillin (100 lU/ml), streptomycin (100 μg/ml) and geneticin (600 μg/ml)) was removed from a flask of confluent cells (1 flask at confluency contains approximately 1×10^7 cells). 10 ml of phosphate buffered saline (PBS) was added to the flask to wash the cells. Having discarded the PBS, cells were then rinsed in 10 ml trypsin for 20 seconds, after which the trypsin was removed and the flask placed in an incubator (37°) for 1-2 minutes until cells became detached from the flask. The flask was then removed from the incubator and cells resuspended in 10 ml of fresh incubation medium. The contents of the flask was transferred to a 250 ml sterile container and the volume of incubation medium subsequently made up to 100 ml. 1 ml cell suspension was pipetted into each well of 4×24-well cell culture plates. The plates were then placed in an incubator (37° C., 95% air/5% CO2) overnight. If more than 1 flask of cells were required, the cells from flasks were combined before being dispensed into the 24-well plates.
(§2) Following the overnight incubation, the incubation medium was completely removed from the 24-well cell culture plates and replaced with 250 μl fresh DMEM (37° C.). The test compounds were made up to 250× the required test concentration in DMSO and were added to the wells in a volume of 1 μl. Plates were then mixed gently by swirling and then placed in an incubator for 1 hour (37° C., 95% air/5% CO2). Following the incubation period, 10 μl of arachidonic acid (750 μM) was added to each well to give a final arachidonic acid concentration of 30 μM. Plates were then incubated for a further 15 minutes, after which the incubation medium was removed from each well of the plates and stored −20° C., prior to determination of prostaglandin E2 (PGE2) levels using enzyme immunoassay. The inhibitory potency of the test compound was expressed as an IC50 value, which is defined as the concentration of the compound required to inhibit the PGE2 release from the cells by 50%. The selectivity ratio of inhibition of COX-1 versus COX-2 was calculated by comparing respective IC50 values. The following IC50 values for inhibition of COX-2 and COX-1 were obtained for compounds of the invention: […]

human COX-2 = molecular target: T2, human COX-2 (Homo sapiens, UniProt P35354); assay: Inhibition of PGE2 release in COS cells stably transfected with human COX-2; assay type: cell-based; details: COS cells transfected with human COX-2, 30 μM arachidonic acid
T2 construct: expressed in transfected cells; host or cells: COS cells (stably transfected)
T2 sequence (P35354 18-604): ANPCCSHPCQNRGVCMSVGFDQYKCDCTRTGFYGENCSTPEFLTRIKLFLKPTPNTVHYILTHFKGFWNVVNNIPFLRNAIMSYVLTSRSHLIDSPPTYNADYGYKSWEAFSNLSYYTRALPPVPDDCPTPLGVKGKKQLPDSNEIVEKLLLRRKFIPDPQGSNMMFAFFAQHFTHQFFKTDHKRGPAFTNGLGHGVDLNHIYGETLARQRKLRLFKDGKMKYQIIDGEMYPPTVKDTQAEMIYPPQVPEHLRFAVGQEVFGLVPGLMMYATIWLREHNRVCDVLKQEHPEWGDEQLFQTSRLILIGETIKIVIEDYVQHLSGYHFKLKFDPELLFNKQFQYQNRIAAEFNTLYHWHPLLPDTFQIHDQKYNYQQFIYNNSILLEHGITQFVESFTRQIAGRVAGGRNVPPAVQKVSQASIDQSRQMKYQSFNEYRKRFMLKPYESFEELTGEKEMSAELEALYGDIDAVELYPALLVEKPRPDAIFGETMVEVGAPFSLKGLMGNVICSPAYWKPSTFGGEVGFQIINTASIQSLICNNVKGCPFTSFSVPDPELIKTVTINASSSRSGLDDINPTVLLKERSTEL
Procedure: as §1, §2

With NS(=O)(=O)c1ccc(-c2c(-c3cccc(F)c3)nn3cc(C(F)(F)F)ccc23)cc1 [Example 1(vii), 4-[2-(3-Fluoro-phenyl)-6-trifluoromethyl-pyrazolo[1,5-a]pyridin-3-yl]benzenesulfonamide] the IC50 (human COX-1) was > 100000 nM and the IC50 (human COX-2) was 34 nM.
CS(=O)(=O)c1ccc(-c2c(-c3cccc(F)c3)nn3cc(C(F)(F)F)ccc23)cc1 [Example 2, 2-(3-Fluoro-phenyl)-3-(4-methanesulfonyl-phenyl)-6-trifluoromethyl-pyrazolo[1,5-a]pyridine] was tested, and the IC50 (human COX-1) was > 100000 nM and the IC50 (human COX-2) was 548 nM.
For CCOc1ccc(-c2nn3cc(C(F)(F)F)ccc3c2-c2ccc(S(N)(=O)=O)cc2)cc1 [Example 3, 4-[2-(4-Ethoxy-phenyl)-6-trifluoromethyl-pyrazolo[1,5-a]pyridin-3-yl]benzenesulfonamide], the IC50 (human COX-1) was 32200 nM and the IC50 (human COX-2) was 34 nM.
With NS(=O)(=O)c1ccc(-c2c(-c3ccc(F)cc3)nn3cc(C(F)(F)F)ccc23)cc1 [Example 4, 4-[2-(4-Fluoro-phenyl)-6-trifluoromethyl-pyrazolo[1,5-a]pyridin-3-yl]benzenesulfonamide] the IC50 (human COX-1) was > 100000 nM and the IC50 (human COX-2) was 34 nM.
In the case of CS(=O)(=O)c1ccc(-c2c(-c3ccc(F)cc3)nn3cc(C(F)(F)F)ccc23)cc1 [Example 5, 2-(4-Fluoro-phenyl)-3-(4-methanesulfonyl-phenyl)-6-trifluoromethyl-pyrazolo[1,5-a]pyridine], the IC50 (human COX-1) is reported as > 100000 nM and the IC50 (human COX-2) is reported as 26 nM.
Work on NS(=O)(=O)c1ccc(-c2c(-c3ccccc3)nn3cc(C(F)(F)F)ccc23)cc1 [Example 6, 4-(2-Phenyl-6-trifluoromethyl-pyrazolo[1,5-a]pyridin-3-yl)-benzenesulfonamide] yielded an IC50 (human COX-1) of 26300 nM and an IC50 (human COX-2) of 31 nM.
In the case of CS(=O)(=O)c1ccc(-c2c(-c3ccccc3)nn3cc(C(F)(F)F)ccc23)cc1 [Example 7, 3-(4-Methanesulfonyl-phenyl)-2-phenyl-6-trifluoromethyl-pyrazolo[1,5-a]pyridine], the IC50 (human COX-1) is reported as > 100000 nM and the IC50 (human COX-2) is reported as 30 nM.
